Results reported in EP4818168A1, “FUSED RING COMPOUND, PHARMACEUTICAL COMPOSITION THEREOF AND USE THEREOF” (priority 2023, dated 2025).
Read-outs that look alike come from different tables or passages of the source.

What was measured:
[1] = tested on: H82 cells; assay: cells; type: cell-based; settings: Homo sapiens
In short: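 H82 cells in RPMI1640 + 10% FBS exposed to compound (0.1% DMSO final) for 6 days at 37 °C, 5% CO2. Viability read by CellTiter-Glo ATP luminescence, normalised to DMSO and medium controls; IC50 from nonlinear regression of the dose–survival curve.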

[2] = biological target: T1, AURKA (Homo sapiens, UniProt O14965); type: cell-based
T1 construct: endogenous in cells; host or cells: Jurkat cells
T1 sequence (O14965 1-403): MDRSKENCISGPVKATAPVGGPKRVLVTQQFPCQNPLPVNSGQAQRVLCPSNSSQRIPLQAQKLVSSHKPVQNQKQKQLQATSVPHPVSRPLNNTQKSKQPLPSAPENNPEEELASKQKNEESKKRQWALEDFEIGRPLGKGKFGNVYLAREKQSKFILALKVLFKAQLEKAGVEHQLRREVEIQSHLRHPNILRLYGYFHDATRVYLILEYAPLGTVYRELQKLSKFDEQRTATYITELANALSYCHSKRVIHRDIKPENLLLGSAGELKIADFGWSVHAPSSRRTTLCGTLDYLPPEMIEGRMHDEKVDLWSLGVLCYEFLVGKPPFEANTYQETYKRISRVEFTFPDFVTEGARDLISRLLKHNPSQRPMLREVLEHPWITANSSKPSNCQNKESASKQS
In short: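 Jurkat cells seeded at 1×10^6 cells/500 µL and treated with compound; lysates run on SDS-PAGE, blotted to nitrocellulose and probed overnight at 4°C for AURKA. Chemiluminescent or fluorescent band intensity fitted to a curve to give DC50 for protein degradation.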

[3] = NCI-H82, H82 cells, 4000 cells/well, CellTiter-Glo, read-out: IC50 in H82 Cells
[4] = 100 nM compound, Jurkat cells, 24 h, Table 2
[5] = 1 µM compound, Jurkat cells, 24 h, Table 2
[6] = NCI-H82, read-out: IC50 in H82 Cells

Row | SMILES | IC50 [1, 3] [µM] | Percentage of AURKA Degradation Induced by 100 nM Compound in Jurkat Cells [2, 4] | Percentage of AURKA Degradation Induced by 1 µM Compound in Jurkat Cells [2, 5] | IC50 [1, 6] [µM] | Percentage of AURKA Degradation Induced by 100 nM Compound in Jurkat Cells [2] | Percentage of AURKA Degradation Induced by 1 µM Compound in Jurkat Cells [2]
1 | COc1cc(Nc2ncc3c(n2)-c2ccc(Cl)cc2C(c2c(F)cccc2OC)=NC3)ccc1N1CCN(C2CCN(c3ccc(N4CCC(=O)NC4=O)cn3)CC2)CC1 [Compound A256] | < 1 | +++ (Degradation > 70%) | +++ (Degradation > 70%) | – | – | –
2 | O=C1CCN(c2ccc(N3CCN(C(=O)N4CCN(c5ccc(Nc6ncc7c(n6)-c6ccc(Cl)cc6C(c6c(F)cccc6F)=NC7)cc5)CC4)CC3)nc2)C(=O)N1 [Compound A258] | < 1 | +++ (Degradation > 70%) | +++ (Degradation > 70%) | – | – | –
3 | O=C1CCN(c2ccc(N3CCN(CC4(F)CN(c5ccc(Nc6ncc7c(n6)-c6ccc(Cl)cc6C(c6c(F)cccc6F)=NC7)cc5)C4)CC3)nc2)C(=O)N1 [Compound A259] | < 1 | +++ (Degradation > 70%) | +++ (Degradation > 70%) | – | – | –
4 | COc1cc(Nc2ncc3c(n2)-c2ccc(Cl)cc2C(c2c(F)cccc2OC)=NC3)ccc1N1CC(CN2CCN(c3ccc(N4CCC(=O)NC4=O)cn3)CC2)C1 [Compound A261] | < 1 | +++ (Degradation > 70%) | +++ (Degradation > 70%) | – | – | –
5 | O=C1CCN(c2ccc(N3CCC(N4CCN(c5ccc(Nc6ncc7c(n6)-c6ccc(Cl)cc6C(c6c(F)cccc6F)=NC7)cc5)CC4)C(F)(F)C3)nc2)C(=O)N1 (stereo not drawn) [Compound A263] | – | +++ (Degradation > 70%) | +++ (Degradation > 70%) | < 1 | – | –
6 | O=C1CCN(c2ccc(N3CCC(O)(CN4CCN(c5ccc(Nc6ncc7c(n6)-c6ccc(Cl)cc6C(c6c(F)cccc6F)=NC7)cc5)CC4)CC3)nc2)C(=O)N1 [Compound A264] | < 1 | +++ (Degradation > 70%) | +++ (Degradation > 70%) | – | – | –
7 | O=C1CCN(c2ccc(N3CCC4(CCN(C(=O)C56CC(Nc7ncc8c(n7)-c7ccc(Cl)cc7C(c7c(F)cccc7F)=NC8)(C5)C6)CC4)CC3)nc2)C(=O)N1 [Compound A265] | < 1 | + (Degradation ≤ 30%) | + (Degradation ≤ 30%) | – | – | –
8 | O=C1CCN(c2ccc(N3CC(N4CCN(Cc5ccc(Nc6ncc7c(n6)-c6ccc(Cl)cc6C(c6c(F)cccc6F)=NC7)cc5)C(=O)C4)C3)nc2)C(=O)N1 [Compound A267] | – | – | – | < 1 | ++ (key: +: Degradation ≤ 30%; ++: 30% < Degradation ≤ 70%; +++: Degradation > 70%) | +++ (key: +: Degradation ≤ 30%; ++: 30% < Degradation ≤ 70%; +++: Degradation > 70%)
9 | CP(C)(=O)c1ccc2c(c1)C(c1c(F)cccc1F)=NCc1cnc(Nc3ccc(N4CCN(C5CCN(c6ccc(N7CCC(=O)NC7=O)cn6)CC5)CC4=O)cc3)nc1-2 [Compound A268] | 1 to 10 | +++ (Degradation > 70%) | +++ (Degradation > 70%) | – | – | –
10 | CP(C)(=O)c1ccc2c(c1)C(c1c(F)cccc1F)=NCc1cnc(Nc3ccc(N4CC(CN5CCN(c6ccc(N7CCC(=O)NC7=O)cn6)CC5)C4)cc3)nc1-2 [Compound A269] | 1 to 10 | +++ (Degradation > 70%) | +++ (Degradation > 70%) | – | – | –
11 | O=C1CCN(c2ccc(N3CCC(C(=O)N4CCN(C56CC(Nc7ncc8c(n7)-c7ccc(Cl)cc7C(c7c(F)cccc7F)=NC8)(C5)C6)C(=O)C4)CC3)nc2)C(=O)N1 [Compound A270] | < 1 | +++ (Degradation > 70%) | +++ (Degradation > 70%) | – | – | –
12 | O=C1CCN(c2ccc(N3CCC(C4CCN(c5ccc(Nc6ncc7c(n6)-c6ccc(Cl)cc6C(c6c(F)cccc6F)=NC7)cc5)CC4)CC3)nc2)C(=O)N1 [Compound A271] | < 1 | ++ (30% < Degradation ≤ 70%) | +++ (Degradation > 70%) | – | – | –
13 | O=C1CCN(c2ccc(N3CCC(F)(CN4CCN(C56CC(Nc7ncc8c(n7)-c7ccc(Cl)cc7C(c7c(F)cccc7F)=NC8)(C5)C6)C(=O)C4)CC3)nc2)C(=O)N1 [Compound A272] | – | – | – | < 1 | +++ (key: +: Degradation ≤ 30%; ++: 30% < Degradation ≤ 70%; +++: Degradation > 70%) | +++ (key: +: Degradation ≤ 30%; ++: 30% < Degradation ≤ 70%; +++: Degradation > 70%)
14 | O=C1CCN(c2ccc(N3CCC(C4CCN(C(=O)C56CC(Nc7ncc8c(n7)-c7ccc(Cl)cc7C(c7c(F)cccc7F)=NC8)(C5)C6)CC4)CC3)nc2)C(=O)N1 [Compound A273] | < 1 | +++ (Degradation > 70%) | +++ (Degradation > 70%) | – | – | –
15 | O=C1CCN(c2ccc(N3CC(C(=O)N4CCN(c5ccc(Nc6ncc7c(n6)-c6ccc(Cl)cc6C(c6c(F)cccc6F)=NC7)cc5)CC4)C3)nc2)C(=O)N1 [Compound A274] | < 1 | +++ (Degradation > 70%) | +++ (Degradation > 70%) | – | – | –
16 | O=C1CCN(c2ccc(N3CC(N4CCN(C(=O)C56CC(Nc7ncc8c(n7)-c7ccc(Cl)cc7C(c7c(F)cccc7F)=NC8)(C5)C6)CC4)C3)nc2)C(=O)N1 [Compound A275] | < 1 | +++ (Degradation > 70%) | +++ (Degradation > 70%) | – | – | –
17 | O=C1CCN(c2ccc(N3CC(N4CCN(Cc5ccc(Nc6ncc7c(n6)-c6ccc(Cl)cc6C(c6c(F)cccc6F)=NC7)cc5)CC4=O)C3)nc2)C(=O)N1 [Compound A276] | – | – | – | < 1 | ++ (key: +: Degradation ≤ 30%; ++: 30% < Degradation ≤ 70%; +++: Degradation > 70%) | ++ (key: +: Degradation ≤ 30%; ++: 30% < Degradation ≤ 70%; +++: Degradation > 70%)
18 | O=C1CCN(c2ccc(N3CCN(C(=O)C4CCN(c5ccc(Nc6ncc7c(n6)-c6ccc(Cl)cc6C(c6c(F)cccc6F)=NC7)cc5)CC4)CC3)nc2)C(=O)N1 [Compound A277] | < 1 | +++ (Degradation > 70%) | +++ (Degradation > 70%) | – | – | –
19 | O=C1CCN(c2ccc(N3CC(CN4CCN(C(=O)C56CC(Nc7ncc8c(n7)-c7ccc(Cl)cc7C(c7c(F)cccc7F)=NC8)(C5)C6)CC4)C3)nc2)C(=O)N1 [Compound A279] | < 1 | +++ (Degradation > 70%) | +++ (Degradation > 70%) | – | – | –
20 | O=C1CCN(c2ccc(N3CCC(C(=O)N4CCN(C56CC(Nc7ncc8c(n7)-c7ccc(Cl)cc7C(c7nccs7)=NC8)(C5)C6)C(=O)C4)CC3)nc2)C(=O)N1 [Compound A280] | < 1 | +++ (Degradation > 70%) | +++ (Degradation > 70%) | – | – | –
21 | O=C1CCN(c2ccc(N3CCN(CC4(O)CN(c5ccc(Nc6ncc7c(n6)-c6ccc(Cl)cc6C(c6c(F)cccc6F)=NC7)cc5)C4)CC3)nc2)C(=O)N1 [Compound A281] | < 1 | +++ (Degradation > 70%) | +++ (Degradation > 70%) | – | – | –
22 | O=C1CCN(c2ccc(N3CCC(N4CCN(c5ccc(Nc6ncc7c(n6)-c6ccc(Cl)cc6C(c6nccs6)=NC7)cc5)C(=O)C4)CC3)nc2)C(=O)N1 [Compound A282] | – | – | – | < 1 | +++ (key: +: Degradation ≤ 30%; ++: 30% < Degradation ≤ 70%; +++: Degradation > 70%) | +++ (key: +: Degradation ≤ 30%; ++: 30% < Degradation ≤ 70%; +++: Degradation > 70%)
